The values that follow come from patent publication US5545667A, “Methods for treating neoplasms with betaines” (The Clorox Company, priority 1994, dated 1996).

Counter-ions that a name gives are not always drawn.

For one data set, the system named is C3H 10T1/2 cells. As to the kind of experiment: Cell growth inhibition assay, C3H 10T1/2. In kind it is cell-based, mouse. The conditions noted are these: C3H 10T1/2 mouse fibroblasts; 3-4 days; read-out: IC50 (uM conc. inhibiting growth of the cells by 50%). On the procedure:
(§1) Established cell lines are the system of choice for the prescreening of unknown compounds for antineoplastic activity. The tumor cell line screen works on the following principle. Cancer cells, if provided with enough nutrients, will grow unchecked in vitro, allowing researchers to grow many types of cancer cells outside the body. To perform an assay, standard amounts of the various cancer cells are placed in individual wells of a microtiter plate, and incubated with the potential antineoplastic compound of interest, for a sufficient period of time to allow for at least a 6-fold control growth, generally 1 to 5 days depending on cell origin. At the end of the incubation period, the cell lines are stained and assayed by a variety of means including, for example, proteins stains or a colorimeter for normal growth, growth inhibition or cytotoxicity. These assays measure a compound's ability to inhibit cell growth and a positive response of the compounds in these assays would be indicative of the therapeutic potential of these compounds. See, for example, the protocols and data presented in Laskin et al., (1979) Cancer Res 39:383-390 for 5-fluorouracil in mouse and human cells in culture.
(§2) A total of ten cell lines were used to evaluate the growth inhibitory potency of the various surfactants. In these studies, human, rat, mouse and bovine cells were used. A spectrum of different tumor cell types were used including those derived from keratinocytes (PAM 212), leukemias (HL-60, U-937 and K-562), an epitheloid carcinoma (HeLa) and melanoma (B-16). The B16 melanoma was used since this is a common cell type used to evaluate antimetastatic activity of test compounds. The effect of the surfactants on three fibroblast cell lines (C3H 10T1/2, NIH 3T3 and R6) were also evaluated for comparison to the tumor cell lines. The activity of the surfactants was also evaluated using pulmonary aortic endothelial cells for effectiveness as antiangiogenic agents.
(§3) PAM 212 cells are a mouse keratinocyte-derived tumor cell line. U-937 cells are a human histiocytic tumor cell line. HeLa cells are an epitheloid tumor cell line. Three murine fibroblast cells lines tested included the mouse fibroblast cell line, C3H 10T1/2, the rat fibroblast cell line R6, and the NIH 3T3 mouse fibroblast cell line. The human leukemia cell line HL-60 and the mouse melanoma B-16 cell were also tested. K-562 cells were from the American Type Culture Collection. All cells were grown in Dulbecco's modified Eagle's medium in a 37° C. incubator in an atmosphere of 5% CO2.
(§4) For growth inhibition assays, cells were seeded at low density (2.5×10^4 cells in 0.5 ml of culture medium) into 24-well tissue culture plates (Falcon Labware, Lincoln Park, N.J.). After 24 hours at 37° C., increasing concentrations (1 to 100 uM) of the surfactants were added to the cells in the culture plate. Control cultures were incubated in the absence of any surfactant. The cells were then incubated for 3-4 days to allow for growth. Cells from individual wells in the culture plate were then removed and duplicate samples taken for counting using a Coulter counter. To remove adherent cells the plates were treated with 0.25% trypsin/0.2% EDTA (GIBCO, Grand Island, N.Y.).

The next data set has as its system K-562 cells. As to the kind of experiment: Cell growth inhibition assay, K-562. In kind it is cell-based. As to conditions: Homo sapiens, K562; K-562 leukemia cells; 3-4 days; read-out: IC50 (uM conc. inhibiting growth of the cells by 50%). On the procedure:
as §1, §2, §3, §4

The next data set concerns B-16 cells. In words: Cell growth inhibition assay, B-16 melanoma. In kind it is cell-based, mouse. As to conditions: B16; B-16 mouse melanoma cells; 3-4 days; read-out: IC50 (uM conc. inhibiting growth of the cells by 50%). The procedure:
as §1, §2, §3, §4

The next data set has as its system R6 cells. As to the kind of experiment: Cell growth inhibition assay, R6. In kind it is cell-based, rat. The conditions noted are these: Fibroblast; R6 rat fibroblasts; 3-4 days; read-out: IC50 (uM conc. inhibiting growth of the cells by 50%). The procedure:
as §1, §2, §3, §4

The subject of the next data set is NIH 3T3 cells. In words: Cell growth inhibition assay, NIH 3T3. In kind it is cell-based, mouse. The conditions noted are these: NIH3T3; NIH 3T3 mouse fibroblasts; 3-4 days; read-out: IC50 (uM conc. inhibiting growth of the cells by 50%). The procedure:
as §1, §2, §3, §4

A further data set has as its system CPA-5 cells. As to the kind of experiment: Cell growth inhibition assay, CPA-5 endothelial cells. Format: cell-based, bovine. The conditions noted are these: Bos taurus, CPA-5 bovine aortic endothelial cells, 3-4 days, read-out: IC50 (uM conc. inhibiting growth of the cells by 50%).
Description: as §2, §3, §4
The compounds were tested as inhibitors of growth in the bovine aortic endothelial cell line CPA-5 as taught in Example 2 in order to evaluate the possibility that they may be anti-angiogenesis agents. A hallmark of angiogenesis is the outgrowth of endothelial cells which are required in the formation of new blood vessels. This process is a critical factor in the vascularization of tumors. Inhibition of neovascularization limits the growth of tumors and would be an effective means of treating cancer. FIG. 3 illustrates that three of the compounds, 8-3S, 12-5B and 12-1B, had no activity against the CPA-5 cell line in the concentration range tested (IC50 =>100 uM), while only relatively high concentrations of 12-3S (IC50 =70 uM) were effective in inhibiting the growth of CPA-5 cells. As indicated above, with several exceptions, these compounds were also not very effective in inhibiting the growth of each of the other cell types.

The next data set has as its system PAM 212 cells. As to the kind of experiment: Cell growth inhibition assay (surfactants, 3-4 days, Coulter counter), PAM 212. Format: cell-based, mouse. As to conditions: PAM212; PAM 212 mouse keratinocyte-derived tumor cells; 3-4 days; read-out: IC50 (uM conc. inhibiting growth of the cells by 50%). The procedure: as §1, §2, §3, §4
Data set [1] in a line: Critical micelle concentration (cmc). Format: physicochemical. From the text:
"Critical micelle concentration" or "cmc" refers to the point at which micelle formation begins.

For data set [2], the system named is HeLa cells, protein synthesis. In words: Protein synthesis in HeLa cells (3H-leucine). Format: cell-based. As to conditions: Homo sapiens, FIG. 2, 4 hours 3H-leucine, read-out: IC50 for leucine uptake (protein synthesis). On the procedure:
(§5) The 16-5B compound was evaluated further using HeLa cells to gain some insight into the mechanism of action of this group of compounds. In these studies, the ability of this compound to inhibit macromolecular synthesis in the cells was examined. The effects of 16-5B on DNA, RNA and protein synthesis was monitored using labeled thymidine, uridine or leucine, respectively. These precursors readily incorporate into the appropriate cellular macromolecules in the cells.
(§6) For assays of macromolecular biosynthesis in HeLa cells, cells were seeded into 60 mm culture dishes (Falcon Labware, Lincoln Park, N.J.) at a density 1×10^5 /ml in 5 mls of cell culture medium. Cells were allowed to grow at 37° C. for 48 hours before use. Culture plates were then removed from the incubator and washed with phosphate buffered saline. The cells were then incubated with increasing concentrations of the 16-5B in 2 ml of serum-free Dulbecco's modified Eagle's medium supplemented with 0.075% sodium bicarbonate. Control cultures were incubated in cell culture medium without surfactant. […] Two 0.5 ml aliquots were neutralized and counted for radioactivity using a scintillation counter.

The next data set has as its system HL-60 cells. As to the kind of experiment: Cell growth inhibition assay, HL-60. Format: cell-based, human. The procedure:
as §1, §2, §3, §4

Data set [3] concerns HeLa cells, DNA synthesis. In words: DNA synthesis in HeLa cells (3H-thymidine). In kind it is cell-based. On the procedure:
as §5, §6

Data set [4] relates to HeLa cells, RNA synthesis. As to the kind of experiment: RNA synthesis in HeLa cells (3H-uridine). Format: cell-based. As to conditions: Homo sapiens, FIG. 2, 2 hours 3H-uridine, read-out: IC50 for uridine uptake (RNA synthesis). The procedure: as §5, §6
In the next data set the test system is ten cell lines. As to the kind of experiment: Cell growth inhibition assays, panel of cell lines. Format: cell-based, human, rat, mouse and bovine.
Description: as §2, §3, §4

A further data set relates to alloreactive Tc cells. The conditions noted are these: dosages between 10 ng/ml and 100 ug/ml; WO85/05031; cited from earlier work.

By IC50 is commonly meant the concentration that gives 50% inhibition. Take `CCCCCCCCCCCCCCCC[N+](C)(C)CCCCCC(=O)[O-]` [16-5B, N-(5-carboxypentyl)-N,N-dimethyl-1-hexadecanaminium hydroxide inner salt]: the IC50 in the data set with C3H 10T1/2 cells came out at 53 µM; in the data set with K-562 cells, 5.5 µM; with B-16 cells, 20 µM; in the data set with R6 cells, 18 µM; with NIH 3T3 cells, 24 µM; with CPA-5 cells, 18 µM. The IC50 in the data set on PAM 212 cells was 6 µM; in [2], 30 µM; in the data set on HL-60 cells (HL-60 human leukemia cells, 3-4 days, read-out: IC50 (uM conc. inhibiting growth of the cells by 50%)), 0.5 µM; in [3] (Homo sapiens, FIG. 2, 1 hour 3H-thymidine, read-out: IC50 for thymidine uptake (DNA synthesis)) it was 30 µM; in [4] it was 30 µM; in the data set on ten cell lines (all / all other cell lines tested, read-out: IC50 over the cell lines tested (range or bound)) it was 0.5 to 53 µM. The compound also gave a cmc in data set [1] of 10 µM. The “fold greater sensitivity of HL-60 among the leukemia cells” value with HL-60 cells (HL-60 versus other leukemia cells) is on record as 10 to 100 fold. For the same compound, the “selective inhibition of macromolecular synthesis” value in [3] (DNA, RNA and protein synthesis compared) was “does not appear to selectively inhibit any of these processes”. Moreover, the “fold concentration required to inhibit K-562 and U-937 growth relative to HL-60” value in the data set with ten cell lines (K-562 and U-937 versus HL-60) was “approximately ten”. The “fold concentration range spanned by the IC50's” value in the data set on ten cell lines (across cell lines) is recorded as 100 fold. In addition, in the data set on ten cell lines (growth inhibition), the “activity against all of the cell lines tested” value is “considerable activity against all of the cell lines tested”.
For `CCCCCCCCCCCC[N+](C)(C)CCCCCCCCCCCC.[Br-]` [didodecyl dimethyl ammonium bromide], in the data set with alloreactive Tc cells, the “immunosuppressive on alloreactive Tc cells” value is “immunosuppressive on alloreactive Tc cells”.
